Columns and labels:
Assay type in all cases: cell-based, human
hiPSC-CM monolayers [1] = assay: 96 well optical mapping of intracellular calcium flux in hiPSC-CM monolayers under IKr blockade; details: 100 nmol L^-1 E4031
Procedure: Briefly, monolayers were loaded with the intracellular Ca^2+ indicator, rhod-2AM (10 μmol L-1, Life Technologies). After a 30 minute incubation time, the cells were washed in Hanks balanced salt solution (HBSS, Life Technologies) for an additional 30 minutes before optical mapping recordings. […] Movies were filtered in both the time and space domain and conduction velocity (CV) was measured as described previously (Hou L, et al., Circulation Research. 2010;107:1503-1511, herein incorporated by reference in its entirety).
Small glass coverslips to fit into a 96 well format dish are not readily available so here plastic was used as the rigid comparator for PDMS.

hiPSC-CM monolayers [2] = assay: Hypertrophic growth and monolayer formation of hiPSC-CMs on glass or PDMS coverslips with FAK inhibitor
Procedure: In a second set of experiments hiPSC-CM monolayers were fixed for immunocytochemistry following optical mapping recordings of impulse propagation as recently described (Lee P, et al., Circulation Research. 2012;110:1556-1563, herein incorporated by reference in its entirety). Briefly, cell monolayers were washed with PBS and then fixed with 4% paraformaldehyde for 10 minutes and rinsed twice before blocking with 10% normal donkey serum in PBS plus 0.1% Triton X-100 (Sigma) for 1.5 hours at room temperature. Primary antibodies were used to detect α-actinin (1:500, Sigma) in the cardiac sarcomeres and Cx43 (1:100, Millipore) and N-cadherin (1:200, BD Bioscience) at the intercellular junctions. The primary antibodies were added to 5% donkey serum in PBS plus 0.1% Triton X-100 and incubated overnight at 4° C. Subsequently, cells were washed three times in PBS plus 0.1% TRITON X-100. […] Protein localization was examined by laser scanning confocal microscopy with sequential laser firing for multiple fluorophores (Nikon AIR, Melville, N.Y.). iPSC-CM cross sectional area was calculated in NIS Elements software using N-cadherin staining of the cell membranes.
Integrins are transmembrane heterodimeric receptors essential for providing cell-extracellular matrix adhesion, cellular structural organization and transduction of mechanical signals from the extracellular matrix into biochemical signals in cardiomyocytes (Ross R S, et al., Circulation Research. 2001;88:1112-1119; Israeli-Rosenberg S, et al., The FASEB Journal. 2015;29:374-384; Israeli-Rosenberg S, et al., Circulation Research. 2014;114:572-586). β1 integrins are abundant in the adult heart and participate in the hypertophic response in rodent ventricular myoyctes (Ross et al., Circulation Research. […] Finally, the role of FAK activation in the hypertrophic response of hiPSC-CMs to the soft cell culture environment on PDMS was determined (FIG. 8D and FIG. 14).

hiPSC-CMs (iCell) = assay: Western blotting for mature myofilament proteins (cTnI, β-MyHC) in hiPSC-CMs cultured with FAK inhibitor
[3] = 10 μmol L^-1 FAK inhibitor-14, cultured on PDMS

## Cc1cccc(CCN2CCC(C(=O)c3ccc(NS(C)(=O)=O)cc3)CC2)n1 [E4031]
hiPSC-CM monolayers [1]; PDMS bottom dishes, n=5, pre 579.8±13.9 ms
  CaTD80 post E4031: 780.1 ± 74.1 ms
hiPSC-CM monolayers [1]; PDMS bottom well
  effect on beat frequency and CaTD80 (in words): more modest effect
hiPSC-CM monolayers [1]; monolayers on matrigel coated PDMS, n=5
  reduction of spontaneous beating frequency: ~20%
hiPSC-CM monolayers [1]; monolayers on rigid plastic (matrigel coated), n=8
  reduction of spontaneous beating frequency: ~50%
hiPSC-CM monolayers [1]; plastic bottom dishes, n=8, pre 605.9±24.3 ms
  CaTD80 post E4031: 1873.8 ± 278.9 ms
hiPSC-CM monolayers [1]; rigid plastic bottom dishes (matrigel coated)
  effect on spontaneous beating frequency and CaTD80 (in words): very significant impact

## Nc1cc(N)c(N)cc1N [FAK inhibitor-14]
hiPSC-CM monolayers [2]; 100 μmol L^-1, both Glass and PDMS
  monolayer formation and hiPSC-CM expansion in culture: prevented monolayer formation and hiPSC-CM expansion in culture
hiPSC-CM monolayers [2]; PDMS coverslips
  hypertrophic growth of hiPSC-CMs: prevented hypertrophic growth
hiPSC-CM monolayers [2]; glass coverslips, effect only at 100 μmol L^-1
  effect on hiPSC-CMs grown on glass coverslips: only affected at very high dose
hiPSC-CMs (iCell); [3]
  cTnI expression: failed to express cTnI
  β-MyHC expression: expressed less β-MyHC
hiPSC-CMs (iCell); FIG. 8C legend
  expression of mature myofilament protein isoforms including cTnI and β-MyHC: prevents expression

From patent US20150329825A1, “COMPOSITIONS AND METHODS EMPLOYING STEM CELL-DERIVED CARDIOMYOCYTES” (THE REGENTS OF THE UNIVERSITY OF MICHIGAN, priority 2014, published 2015)
